# In ChEMBL document CHEMBL1201862, “PubChem BioAssay data set” (2004):
#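 Results reflect a 48-hour exposure of cells in 96-well plates to compound at five concentrations. GI50 = concentration required for 50% inhibition of growth.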 Active and inactive are the calls of the source. No stated cut-off is given here; in the data, active = GI50 up to about 1.1 µM and inactive = higher.
# Key:
# Experiment in all cases: inhibition of tumour cell growth, NCI panel, 48 h
# 786-0 = test system: 786-0
# A498 = test system: A498
# A549 = test system: A549
# ACHN = test system: ACHN
# BT-549 = test system: BT-549
# CAKI-1 = test system: CAKI-1
# CCRF-CEM = test system: CCRF-CEM
# COLO 205 = test system: COLO 205
# DU-145 = test system: DU-145
# EKVX = test system: EKVX
# HCT-116 = test system: HCT-116
# HCT-15 = test system: HCT-15
# HL-60 = test system: HL-60
# HOP-62 = test system: HOP-62
# HOP-92 = test system: HOP-92
# HT-29 = test system: HT-29
# Hs-578T = test system: Hs-578T
# IGROV-1 = test system: IGROV-1
# KM12 = test system: KM12
# LOX IMVI = test system: LOX IMVI
# M14 = test system: M14
# MCF7 = test system: MCF7
# MDA-MB-231 = test system: MDA-MB-231
# MDA-MB-435 = test system: MDA-MB-435
# MDA-N = test system: MDA-N
# MOLT-4 = test system: MOLT-4
# NCI-H226 = test system: NCI-H226
# NCI-H23 = test system: NCI-H23
# NCI-H460 = test system: NCI-H460
# NCI-H522 = test system: NCI-H522
# NCI/ADR-RES = test system: NCI/ADR-RES
# OVCAR-3 = test system: OVCAR-3
# OVCAR-4 = test system: OVCAR-4
# OVCAR-5 = test system: OVCAR-5
# OVCAR-8 = test system: OVCAR-8
# PC-3 = test system: PC-3
# SF-268 = test system: SF-268
# SF-295 = test system: SF-295
# SF-539 = test system: SF-539
# SK-MEL-28 = test system: SK-MEL-28
# SK-MEL-2 = test system: SK-MEL-2
# SK-MEL-5 = test system: SK-MEL-5
# SK-OV-3 = test system: SK-OV-3
# SN12C = test system: SN12C
# SNB-19 = test system: SNB-19
# SNB-75 = test system: SNB-75
# SW-620 = test system: SW-620
# T47D = test system: T47D
# TK-10 = test system: TK-10
# U-251 = test system: U-251
# UACC-257 = test system: UACC-257
# UACC-62 = test system: UACC-62
# UO-31 = test system: UO-31
# HCC 2998 = test system: HCC 2998
# K562 = test system: K562
# Malme-3M = test system: Malme-3M
# RPMI-8226 = test system: RPMI-8226
# RXF 393 = test system: RXF 393
structure (smiles),measurement,setting,value
CCOC(=O)c1c[nH]c2c(Sc3ccccc3)nccc2c1=O,GI50,786-0,> 100 µM (inactive)
same,GI50,A498,> 100 µM (inactive)
same,GI50,A549,87.5 µM (inactive)
same,GI50,ACHN,> 100 µM (inactive)
same,GI50,BT-549,30.7 µM (inactive)
same,GI50,CAKI-1,41.3 µM (inactive)
same,GI50,CCRF-CEM,22.3 µM (inactive)
same,GI50,COLO 205,> 100 µM (inactive)
same,GI50,DU-145,90.8 µM (inactive)
same,GI50,EKVX,> 100 µM (inactive)
same,GI50,HCT-116,73.6 µM (inactive)
same,GI50,HCT-15,> 100 µM
same,GI50,HL-60,27.5 µM (inactive)
same,GI50,HOP-62,> 100 µM (inactive)
same,GI50,HOP-92,46.9 µM (inactive)
same,GI50,HT-29,97.5 µM (inactive)
same,GI50,Hs-578T,> 100 µM (inactive)
same,GI50,IGROV-1,21.7 µM (inactive)
same,GI50,KM12,44.6 µM (inactive)
same,GI50,LOX IMVI,31 µM (inactive)
same,GI50,M14,> 100 µM (inactive)
same,GI50,MCF7,71.4 µM (inactive)
same,GI50,MDA-MB-231,53.1 µM (inactive)
same,GI50,MDA-MB-435,39.6 µM (inactive)
same,GI50,MDA-N,> 100 µM (inactive)
same,GI50,MOLT-4,17.8 µM (inactive)
same,GI50,NCI-H226,95.3 µM (inactive)
same,GI50,NCI-H23,32.4 µM (inactive)
same,GI50,NCI-H460,> 100 µM (inactive)
same,GI50,NCI-H522,19.7 µM (inactive)
same,GI50,NCI/ADR-RES,> 100 µM (inactive)
same,GI50,OVCAR-3,> 100 µM (inactive)
same,GI50,OVCAR-4,> 100 µM (inactive)
same,GI50,OVCAR-5,> 100 µM (inactive)
same,GI50,OVCAR-8,> 100 µM (inactive)
same,GI50,PC-3,> 100 µM (inactive)
same,GI50,SF-268,> 100 µM (inactive)
same,GI50,SF-295,> 100 µM (inactive)
same,GI50,SF-539,77.8 µM (inactive)
same,GI50,SK-MEL-28,> 100 µM (inactive)
same,GI50,SK-MEL-2,> 100 µM (inactive)
same,GI50,SK-MEL-5,92.7 µM (inactive)
same,GI50,SK-OV-3,> 100 µM (inactive)
same,GI50,SN12C,> 100 µM (inactive)
same,GI50,SNB-19,> 100 µM (inactive)
same,GI50,SNB-75,71.1 µM (inactive)
same,GI50,SW-620,> 100 µM (inactive)
same,GI50,T47D,18.3 µM (inactive)
same,GI50,TK-10,> 100 µM (inactive)
same,GI50,U-251,44.4 µM (inactive)
same,GI50,UACC-257,> 100 µM (inactive)
same,GI50,UACC-62,36.7 µM (inactive)
same,GI50,UO-31,13.2 µM (inactive)
NC(Cc1ccccc1)(C(=O)O)C(=O)O,GI50,786-0,> 100 µM (inactive)
same,GI50,A498,> 100 µM (inactive)
same,GI50,A549,> 100 µM (inactive)
same,GI50,ACHN,> 100 µM (inactive)
same,GI50,BT-549,> 100 µM (inactive)
same,GI50,CAKI-1,14.8 µM (inactive)
same,GI50,CCRF-CEM,> 100 µM (inactive)
same,GI50,COLO 205,> 100 µM (inactive)
same,GI50,DU-145,> 100 µM (inactive)
same,GI50,EKVX,> 100 µM (inactive)
same,GI50,HCC 2998,> 100 µM (inactive)
same,GI50,HCT-116,> 100 µM (inactive)
same,GI50,HCT-15,> 100 µM
same,GI50,HOP-62,> 100 µM (inactive)
same,GI50,HOP-92,> 100 µM (inactive)
same,GI50,HT-29,> 100 µM (inactive)
same,GI50,Hs-578T,> 100 µM (inactive)
same,GI50,IGROV-1,> 100 µM (inactive)
same,GI50,K562,> 100 µM (inactive)
same,GI50,KM12,> 100 µM (inactive)
same,GI50,LOX IMVI,> 100 µM (inactive)
same,GI50,M14,> 100 µM (inactive)
same,GI50,MCF7,> 100 µM (inactive)
same,GI50,MDA-MB-231,> 100 µM (inactive)
same,GI50,MDA-MB-435,> 100 µM (inactive)
same,GI50,MDA-N,> 100 µM (inactive)
same,GI50,MOLT-4,> 100 µM (inactive)
same,GI50,Malme-3M,> 100 µM (inactive)
same,GI50,NCI-H226,> 100 µM (inactive)
same,GI50,NCI-H23,> 100 µM (inactive)
same,GI50,NCI-H460,> 100 µM (inactive)
same,GI50,NCI-H522,> 100 µM (inactive)
same,GI50,NCI/ADR-RES,> 100 µM (inactive)
same,GI50,OVCAR-3,> 100 µM (inactive)
same,GI50,OVCAR-4,> 100 µM (inactive)
same,GI50,OVCAR-5,> 100 µM (inactive)
same,GI50,OVCAR-8,> 100 µM (inactive)
same,GI50,PC-3,> 100 µM (inactive)
same,GI50,RPMI-8226,> 100 µM (inactive)
same,GI50,RXF 393,> 100 µM (inactive)
same,GI50,SF-268,> 100 µM (inactive)
same,GI50,SF-295,> 100 µM (inactive)
same,GI50,SF-539,> 100 µM (inactive)
same,GI50,SK-MEL-28,> 100 µM (inactive)
same,GI50,SK-MEL-2,> 100 µM (inactive)
same,GI50,SK-MEL-5,> 100 µM (inactive)
same,GI50,SK-OV-3,> 100 µM (inactive)
same,GI50,SN12C,> 100 µM (inactive)
same,GI50,SNB-19,> 100 µM (inactive)
same,GI50,SW-620,> 100 µM (inactive)
same,GI50,T47D,> 100 µM (inactive)
same,GI50,TK-10,> 100 µM (inactive)
same,GI50,U-251,> 100 µM (inactive)
same,GI50,UACC-257,> 100 µM (inactive)
same,GI50,UACC-62,> 100 µM (inactive)
same,GI50,UO-31,> 100 µM (inactive)
